Reference: patent US20230355646A1, “AUTOPHAGY ACTIVATOR” (Resonac Corporation, priority 2020, published 2023)

Test system: mTOR gene
Experiment: mTOR gene expression suppression effect in human senescent fibroblasts (quantitative real-time PCR)
Format: cell-based
Description: Normal human fibroblasts (NB1RGB, RIKEN BRC Cell Bank) were cultured until confluent in D-MEM medium (manufactured by Sigma-Aldrich) to which 10% fetal bovine serum (manufactured by MP Biomedicals) was added. Thereafter, the cells were treated with 250 μM aqueous hydrogen peroxide for 2 hours, and cultured for 24 hours in D-MEM medium to which fresh 10% fetal bovine serum was added. The treatment with aqueous hydrogen peroxide and the cell culture operation were repeated three times, and the obtained fibroblasts were used as senescent fibroblasts.
The prepared senescent fibroblasts were prepared at a seeding density of 10000 cells/cm^2 and cultured for 24 hours in D-MEM medium (manufactured by Sigma-Aldrich) to which 10% fetal bovine serum (manufactured by MP Biomedicals) was added. […]
Then, using Nucleospin (registered trademark) RNA kit (manufactured by Takara Bio Inc.), RNA was extracted from senescent fibroblasts or normal human fibroblasts in each example, and cDNA was synthesized from the obtained RNA. Next, using this cDNA as a template, by quantitative real-time PCR, the expression level of mTOR gene was quantified using primers (manufactured by Takara Bio Inc.) specific to mTOR gene. […]

COc1ccc([C@@H]2CC(=O)c3c(O)cc(O[C@@H]4O[C@H](CO[C@@H]5O[C@@H](C)[C@H](O)[C@@H](O)[C@H]5O)[C@@H](O)[C@H](O)[C@H]4O)cc3O2)cc1O [Comparative Example 2, hesperidin]
Relative gene expression level mTOR (10^−2% (V/V) methyl hesperidin or hesperidin, additional ingredient where in the example, 24 hours, Comparative Example 3 (DMSO) = 1.00): 1.16
expression level of mTOR gene (in words) (compared to DMSO only of Comparative Example 3): almost the same
